Source: paper PMC12748989 (Nature Communications, 2025)

What was measured:
[1] = tested on: PBMC; details: 12.5 µM
[2] = tested on: MDA-MB-231 cells

SMILES | Average (percentage cell inhibition), Mastoparan PBMC [1] [%] | Average (percentage cell inhibition), Dmastoparan MDA-MB231 12.5uM [2] [%]
CC[C@H](C)[C@H](N)C(=O)N[C@@H](CCC(=O)O)C(=O)N[C@@H](CC(C)C)C(=O)N[C@@H](CCCCN)C(=O)N[C@@H](C)C(=O)N[C@@H](CC(C)C)C(=O)N[C@@H](C)C(=O)N[C@@H](C)C(=O)N[C@@H](CC(C)C)C(=O)N[C@@H](C)C(=O)N[C@@H](CCCCN)C(=O)N[C@@H](CCCCN)C(=O)N[C@H](C(=O)N[C@@H](CC(C)C)C(N)=O)[C@@H](C)CC [E2] | 11.8092 | 39.1083
CC[C@H](C)[C@H](N)C(=O)N[C@@H](CC(N)=O)C(=O)N[C@@H](CC(C)C)C(=O)N[C@@H](CCCCN)C(=O)N[C@@H](C)C(=O)N[C@@H](CC(C)C)C(=O)N[C@@H](C)C(=O)N[C@@H](C)C(=O)N[C@@H](CC(C)C)C(=O)N[C@@H](C)C(=O)N[C@@H](CCCCN)C(=O)N[C@@H](CCCCN)C(=O)N[C@H](C(=O)N[C@H](C(N)=O)C(C)C)[C@@H](C)CC [V14] | 3.082 | 42.849
CC[C@H](C)[C@H](N)C(=O)N[C@@H](CC(N)=O)C(=O)N[C@@H](CC(C)C)C(=O)N[C@@H](CCCCN)C(=O)N[C@@H](C)C(=O)N[C@@H](CC(C)C)C(=O)N[C@@H](C)C(=O)N[C@@H](C)C(=O)N[C@@H](CC(N)=O)C(=O)N[C@@H](C)C(=O)N[C@@H](CCCCN)C(=O)N[C@@H](CCCCN)C(=O)N[C@H](C(=O)N[C@@H](CC(C)C)C(N)=O)[C@@H](C)CC [N9] | 3.083 | 3.242
CC[C@H](C)[C@H](N)C(=O)N[C@@H](CC(N)=O)C(=O)N[C@@H](CC(C)C)C(=O)N[C@@H](CCCCN)C(=O)N[C@@H](C)C(=O)N[C@@H](CC(C)C)C(=O)N[C@@H](C)C(=O)N[C@H](C(=O)N[C@@H](CC(C)C)C(=O)N[C@@H](C)C(=O)N[C@@H](CCCCN)C(=O)N[C@@H](CCCCN)C(=O)N[C@H](C(=O)N[C@@H](CC(C)C)C(N)=O)[C@@H](C)CC)[C@@H](C)O [T8] | 11.6569 | 35.9719
CC[C@H](C)[C@H](N)C(=O)N[C@@H](CC(N)=O)C(=O)N[C@@H](CC(C)C)C(=O)N[C@@H](CCCCN)C(=O)N[C@@H](C)C(=O)N[C@@H](CC(C)C)C(=O)N[C@@H](C)C(=O)N[C@@H](C)C(=O)N[C@@H](CC(C)C)C(=O)N[C@@H](C)C(=O)N[C@@H](Cc1c[nH]c2ccccc12)C(=O)N[C@@H](CCCCN)C(=O)N[C@H](C(=O)N[C@@H](CC(C)C)C(N)=O)[C@@H](C)CC [W11] | 64.4734 | 74.1582
CC[C@H](C)[C@H](N)C(=O)N[C@@H](CC(N)=O)C(=O)N[C@@H](CC(C)C)C(=O)N[C@@H](CCCCN)C(=O)N[C@@H](C)C(=O)N[C@@H](CC(C)C)C(=O)N[C@@H](C)C(=O)N[C@@H](C)C(=O)N[C@@H](CC(C)C)C(=O)N[C@@H](C)C(=O)N[C@@H](CCCCN)C(=O)N[C@@H](CCCCN)C(=O)N[C@H](C(=O)N[C@@H](CC(C)C)C(N)=O)C(C)C [V13] | 11.5837 | 38.0334
CC[C@H](C)[C@H](N)C(=O)N[C@@H](CC(N)=O)C(=O)N1CCC[C@H]1C(=O)N[C@@H](CCCCN)C(=O)N[C@@H](C)C(=O)N[C@@H](CC(C)C)C(=O)N[C@@H](C)C(=O)N[C@@H](C)C(=O)N[C@@H](CC(C)C)C(=O)N[C@@H](C)C(=O)N[C@@H](CCCCN)C(=O)N[C@@H](CCCCN)C(=O)N[C@H](C(=O)N[C@@H](CC(C)C)C(N)=O)[C@@H](C)CC [P3] | -5.207 | 17.7289
CC[C@H](C)[C@H](N)C(=O)N[C@@H](CC(N)=O)C(=O)N[C@@H](CC(C)C)C(=O)N[C@@H](CCCCN)C(=O)N[C@H](C(=O)N[C@@H](CC(C)C)C(=O)N[C@@H](C)C(=O)N[C@@H](C)C(=O)N[C@@H](CC(C)C)C(=O)N[C@@H](C)C(=O)N[C@@H](CCCCN)C(=O)N[C@@H](CCCCN)C(=O)N[C@H](C(=O)N[C@@H](CC(C)C)C(N)=O)[C@@H](C)CC)C(C)C [V5] | 6.235 | 36.2551
CC[C@H](C)[C@H](N)C(=O)N[C@@H](CC(N)=O)C(=O)N[C@@H](CC(C)C)C(=O)N[C@@H](CCCCN)C(=O)N[C@@H](C)C(=O)N[C@@H](CC(C)C)C(=O)N[C@@H](C)C(=O)N[C@@H](C)C(=O)N[C@@H](CC(C)C)C(=O)N[C@@H](C)C(=O)N[C@@H](Cc1ccc(O)cc1)C(=O)N[C@@H](CCCCN)C(=O)N[C@H](C(=O)N[C@@H](CC(C)C)C(N)=O)[C@@H](C)CC [Y11] | 16.0926 | 42.1135
CC[C@H](C)[C@H](N)C(=O)N[C@@H](CC(N)=O)C(=O)N[C@@H](CC(C)C)C(=O)N[C@@H](CCCCN)C(=O)N[C@@H](C)C(=O)N[C@@H](CC(C)C)C(=O)N[C@@H](C)C(=O)N[C@@H](C)C(=O)N[C@@H](CC(C)C)C(=O)N[C@@H](C)C(=O)N[C@@H](C)C(=O)N[C@@H](CCCCN)C(=O)N[C@H](C(=O)N[C@@H](CC(C)C)C(N)=O)[C@@H](C)CC [A11] | 11.43 | 45.8441
CC[C@H](C)[C@H](N)C(=O)N[C@@H](CC(N)=O)C(=O)N[C@@H](CC(C)C)C(=O)N[C@H](C(=O)N[C@@H](C)C(=O)N[C@@H](CC(C)C)C(=O)N[C@@H](C)C(=O)N[C@@H](C)C(=O)N[C@@H](CC(C)C)C(=O)N[C@@H](C)C(=O)N[C@@H](CCCCN)C(=O)N[C@@H](CCCCN)C(=O)N[C@H](C(=O)N[C@@H](CC(C)C)C(N)=O)[C@@H](C)CC)C(C)C [V4] | 3.317 | 32.9047
CC[C@H](C)[C@H](N)C(=O)N[C@@H](CC(N)=O)C(=O)N[C@@H](CC(C)C)C(=O)N[C@@H](CCCCN)C(=O)N[C@@H](C)C(=O)N[C@@H](CC(C)C)C(=O)N[C@@H](C)C(=O)N[C@@H](C)C(=O)N[C@@H](CC(C)C)C(=O)N[C@@H](C)C(=O)N[C@@H](CCCCN)C(=O)N[C@@H](CCCCN)C(=O)N[C@@H](Cc1c[nH]cn1)C(=O)N[C@@H](CC(C)C)C(N)=O [H13] | -0.416 | 24.5783
CC[C@H](C)[C@H](N)C(=O)N[C@@H](CC(N)=O)C(=O)N[C@@H](CC(C)C)C(=O)N[C@@H](CCCCN)C(=O)N[C@@H](C)C(=O)N[C@@H](CC(C)C)C(=O)N[C@@H](C)C(=O)N[C@@H](C)C(=O)N[C@@H](CC(C)C)C(=O)N[C@@H](C)C(=O)N[C@@H](CCCCN)C(=O)N[C@@H](CCCCN)C(=O)N[C@H](C(=O)N[C@@H](CO)C(N)=O)[C@@H](C)CC [S14] | -3.76 | 38.8299
CC[C@H](C)[C@H](N)C(=O)N[C@@H](CC(N)=O)C(=O)N[C@@H](CCCNC(=N)N)C(=O)N[C@@H](CCCCN)C(=O)N[C@@H](C)C(=O)N[C@@H](CC(C)C)C(=O)N[C@@H](C)C(=O)N[C@@H](C)C(=O)N[C@@H](CC(C)C)C(=O)N[C@@H](C)C(=O)N[C@@H](CCCCN)C(=O)N[C@@H](CCCCN)C(=O)N[C@H](C(=O)N[C@@H](CC(C)C)C(N)=O)[C@@H](C)CC [R3] | -2.846 | 24.609
CC[C@H](C)[C@H](NC(=O)[C@H](CCCCN)NC(=O)[C@H](CCCCN)NC(=O)[C@H](C)NC(=O)[C@H](CC(C)C)NC(=O)[C@H](C)NC(=O)[C@H](C)NC(=O)[C@H](CC(C)C)NC(=O)[C@H](C)NC(=O)[C@H](CCCCN)NC(=O)[C@H](CC(C)C)NC(=O)[C@H](CC(N)=O)NC(=O)CN)C(=O)N[C@@H](CC(C)C)C(N)=O [G1] | 6.436 | 44.9778
CC[C@H](C)[C@H](N)C(=O)N[C@@H](CC(N)=O)C(=O)N[C@@H](CC(C)C)C(=O)N[C@@H](CCCCN)C(=O)N[C@@H](C)C(=O)N[C@@H](CC(C)C)C(=O)N[C@@H](C)C(=O)N[C@@H](C)C(=O)N[C@@H](Cc1c[nH]c2ccccc12)C(=O)N[C@@H](C)C(=O)N[C@@H](CCCCN)C(=O)N[C@@H](CCCCN)C(=O)N[C@H](C(=O)N[C@@H](CC(C)C)C(N)=O)[C@@H](C)CC [W9] | 6.531 | 26.5648
CC[C@H](C)[C@H](N)C(=O)N[C@@H](Cc1c[nH]c2ccccc12)C(=O)N[C@@H](CC(C)C)C(=O)N[C@@H](CCCCN)C(=O)N[C@@H](C)C(=O)N[C@@H](CC(C)C)C(=O)N[C@@H](C)C(=O)N[C@@H](C)C(=O)N[C@@H](CC(C)C)C(=O)N[C@@H](C)C(=O)N[C@@H](CCCCN)C(=O)N[C@@H](CCCCN)C(=O)N[C@H](C(=O)N[C@@H](CC(C)C)C(N)=O)[C@@H](C)CC [W2] | 92.9669 | 98.3458
CC[C@H](C)[C@H](N)C(=O)N[C@@H](CC(N)=O)C(=O)N[C@@H](CC(C)C)C(=O)N[C@@H](CCCCN)C(=O)N[C@@H](C)C(=O)N[C@@H](CC(C)C)C(=O)N[C@@H](C)C(=O)N[C@@H](C)C(=O)N[C@@H](CC(C)C)C(=O)N[C@H](C(=O)N[C@@H](CCCCN)C(=O)N[C@@H](CCCCN)C(=O)N[C@H](C(=O)N[C@@H](CC(C)C)C(N)=O)[C@@H](C)CC)C(C)C [V10] | 37.352 | 85.9235
CC[C@H](C)[C@H](N)C(=O)N[C@@H](CC(N)=O)C(=O)N[C@@H](CC(C)C)C(=O)N[C@@H](CCCCN)C(=O)N[C@@H](C)C(=O)N[C@@H](CC(C)C)C(=O)N[C@@H](C)C(=O)N[C@@H](C)C(=O)N[C@@H](CC(C)C)C(=O)N[C@@H](C)C(=O)N[C@@H](Cc1c[nH]cn1)C(=O)N[C@@H](CCCCN)C(=O)N[C@H](C(=O)N[C@@H](CC(C)C)C(N)=O)[C@@H](C)CC [H11] | -0.6179 | 27.1728
